Measurements as given in ChEMBL document CHEMBL1201862, “PubChem BioAssay data set” (2004).
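Cells were grown in 96-well plates and exposed to each compound for 48 hours at five concentrations; endpoints were interpolated linearly between bracketing concentrations, or set to the highest concentration if not reached. Abbreviation: GI50, concentration required for 50% inhibition of growth.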 Active and inactive are the calls of the source. Cut-off read from the data, not from the text of the source: active = GI50 up to about 1.1 µM and inactive = higher.

Key:
Test in all cases: growth of human tumour cells (NCI), 48 h
[1] = tested on: LXFL 529
[2] = tested on: KM12
[3] = tested on: LOX IMVI
[4] = tested on: SK-OV-3
[5] = tested on: SF-268
[6] = tested on: RXF 393
[7] = tested on: SN12C
[8] = tested on: DMS-114
[9] = tested on: PC-3
[10] = tested on: NCI-H522
[11] = tested on: ACHN
[12] = tested on: M19-MEL
[13] = tested on: COLO 205
[14] = tested on: MDA-MB-435
[15] = tested on: Hs-578T
[16] = tested on: UO-31
[17] = tested on: HCT-15
[18] = tested on: HL-60
[19] = tested on: DMS-273
[20] = tested on: SK-MEL-5
[21] = tested on: UACC-257
[22] = tested on: NCI-H226
[23] = tested on: CCRF-CEM
[24] = tested on: MOLT-4
[25] = tested on: XF498
[26] = tested on: IGROV-1
[27] = tested on: M14
[28] = tested on: UACC-62
[29] = tested on: MDA-N
[30] = tested on: SK-MEL-2
[31] = tested on: NCI/ADR-RES
[32] = tested on: BT-549
[33] = tested on: TK-10
[34] = tested on: HOP-18
[35] = tested on: CAKI-1
[36] = tested on: SF-539
[37] = tested on: A549
[38] = tested on: A498
[39] = tested on: KM-20L2
[40] = tested on: OVCAR-5
[41] = tested on: 786-0
[42] = tested on: T47D
[43] = tested on: DLD-1
[44] = tested on: EKVX
[45] = tested on: SW-620
[46] = tested on: DU-145
[47] = tested on: SF-295
[48] = tested on: SNB-78
[49] = tested on: HT-29
[50] = tested on: U-251
[51] = tested on: SNB-19
[52] = tested on: OVCAR-8
[53] = tested on: MCF7
[54] = tested on: HOP-92
[55] = tested on: HCC 2998
[56] = tested on: HOP-62
[57] = tested on: MDA-MB-231
[58] = tested on: OVCAR-4
[59] = tested on: NCI-H23
[60] = tested on: OVCAR-3
[61] = tested on: HCT-116
[62] = tested on: SK-MEL-28
[63] = tested on: SNB-75
[64] = tested on: Malme-3M
[65] = tested on: NCI-H460
[66] = tested on: K562
[67] = tested on: RPMI-8226
[68] = tested on: SR

Question: Which GI50 [1] does the source give for `CCC(=O)OC1CCn2c1nc1c2C(=O)C(C)=C(N2CC2)C1=O` (configuration not stated) here?
Answer: 93.3 nM (active)

Question: And the GI50 [2]?
Answer: 93.8 nM (active)

Question: And the GI50 [3]?
Answer: 77.1 nM (active)

Question: What about the GI50 [4] of the same molecule?
Answer: 103 nM (active)

Question: What about the GI50 [5] of the same molecule?
Answer: 75.5 nM (active)

Question: What about the GI50 [6] of the same molecule?
Answer: 56.5 nM (active)

Question: And the GI50 [7]?
Answer: 88.1 nM (active)

Question: What about the GI50 [8] of the same molecule?
Answer: 120 nM (active)

Question: And the GI50 [9]?
Answer: 105 nM (active)

Question: And the GI50 [10]?
Answer: 36.1 nM (active)

Question: What about the GI50 [11] of the same molecule?
Answer: 89.5 nM (active)

Question: And the GI50 [12]?
Answer: 146 nM (active)

Question: What about the GI50 [13] of the same molecule?
Answer: 199 nM (active)

Question: And the GI50 [14]?
Answer: 25.4 nM (active)

Question: What about the GI50 [15] of the same molecule?
Answer: 45.5 nM (active)

Question: What about the GI50 [16] of the same molecule?
Answer: 69.8 nM (active)

Question: What about the GI50 [17] of the same molecule?
Answer: 27.5 nM

Question: And the GI50 [18]?
Answer: 350 nM (active)

Question: What about the GI50 [19] of the same molecule?
Answer: 45 nM (active)

Question: What about the GI50 [20] of the same molecule?
Answer: 29.4 nM (active)

Question: And the GI50 [21]?
Answer: 71.1 nM (active)

Question: What about the GI50 [22] of the same molecule?
Answer: 111 nM (active)

Question: And the GI50 [23]?
Answer: 590 nM (active)

Question: What about the GI50 [24] of the same molecule?
Answer: 3410 nM (inactive)

Question: What about the GI50 [25] of the same molecule?
Answer: 34.5 nM (active)

Question: What about the GI50 [26] of the same molecule?
Answer: 482 nM (active)

Question: And the GI50 [27]?
Answer: 69.8 nM (active)

Question: And the GI50 [28]?
Answer: 60.7 nM (active)

Question: What about the GI50 [29] of the same molecule?
Answer: 43 nM (active)

Question: What about the GI50 [30] of the same molecule?
Answer: 64 nM (active)

Question: And the GI50 [31]?
Answer: 48 nM (active)

Question: What about the GI50 [32] of the same molecule?
Answer: 54.6 nM (active)

Question: And the GI50 [33]?
Answer: 38.3 nM (active)

Question: What about the GI50 [34] of the same molecule?
Answer: 43.9 nM (active)

Question: What about the GI50 [35] of the same molecule?
Answer: 50.9 nM (active)

Question: What about the GI50 [36] of the same molecule?
Answer: 143 nM (active)

Question: What about the GI50 [37] of the same molecule?
Answer: 115 nM (active)

Question: What about the GI50 [38] of the same molecule?
Answer: 52.6 nM (active)

Question: And the GI50 [39]?
Answer: 233 nM (active)

Question: And the GI50 [40]?
Answer: 90.2 nM (active)

Question: And the GI50 [41]?
Answer: 84.1 nM (active)

Question: What about the GI50 [42] of the same molecule?
Answer: 1600 nM (inactive)

Question: What about the GI50 [43] of the same molecule?
Answer: 105 nM (active)

Question: What about the GI50 [44] of the same molecule?
Answer: 224 nM (active)

Question: What about the GI50 [45] of the same molecule?
Answer: 48.8 nM (active)

Question: What about the GI50 [46] of the same molecule?
Answer: 7.43 nM (active)

Question: And the GI50 [47]?
Answer: 72.8 nM (active)

Question: And the GI50 [48]?
Answer: 462 nM (active)

Question: And the GI50 [49]?
Answer: 183 nM (active)

Question: And the GI50 [50]?
Answer: 37.1 nM (active)

Question: What about the GI50 [51] of the same molecule?
Answer: 98.9 nM (active)

Question: And the GI50 [52]?
Answer: 67.8 nM (active)

Question: What about the GI50 [53] of the same molecule?
Answer: 6.37 nM (active)

Question: What about the GI50 [54] of the same molecule?
Answer: 1530 nM (inactive)

Question: And the GI50 [55]?
Answer: 61.5 nM (active)

Question: What about the GI50 [56] of the same molecule?
Answer: 69.7 nM (active)

Question: What about the GI50 [57] of the same molecule?
Answer: 1420 nM (inactive)

Question: What about the GI50 [58] of the same molecule?
Answer: 126 nM (active)

Question: And the GI50 [59]?
Answer: < 42.3 nM (active)

Question: What about the GI50 [60] of the same molecule?
Answer: 67 nM (active)

Question: What about the GI50 [61] of the same molecule?
Answer: 93.5 nM (active)

Question: And the GI50 [62]?
Answer: 79.1 nM (active)

Question: And the GI50 [63]?
Answer: 30.1 nM (active)

Question: What about the GI50 [64] of the same molecule?
Answer: 63 nM (active)

Question: What about the GI50 [65] of the same molecule?
Answer: 45 nM (active)

Question: `CCOC(=O)/C(=C/c1ccc(Cl)cc1)N(CC)CC` was tested. Which GI50 [1] did it give?
Answer: > 100000 nM (inactive)

Question: What about the GI50 [2] of the same molecule?
Answer: > 100000 nM (inactive)

Question: And the GI50 [3]?
Answer: > 100000 nM (inactive)

Question: What about the GI50 [4] of the same molecule?
Answer: > 100000 nM (inactive)

Question: And the GI50 [5]?
Answer: > 100000 nM (inactive)

Question: What about the GI50 [7] of the same molecule?
Answer: > 100000 nM (inactive)

Question: What about the GI50 [10] of the same molecule?
Answer: 89100 nM (inactive)

Question: And the GI50 [11]?
Answer: > 100000 nM (inactive)

Question: What about the GI50 [12] of the same molecule?
Answer: > 100000 nM (inactive)

Question: And the GI50 [13]?
Answer: > 100000 nM (inactive)

Question: And the GI50 [16]?
Answer: > 100000 nM (inactive)

Question: What about the GI50 [17] of the same molecule?
Answer: > 100000 nM

Question: What about the GI50 [18] of the same molecule?
Answer: > 100000 nM (inactive)

Question: What about the GI50 [20] of the same molecule?
Answer: > 100000 nM (inactive)

Question: And the GI50 [21]?
Answer: > 100000 nM (inactive)

Question: What about the GI50 [22] of the same molecule?
Answer: > 100000 nM (inactive)

Question: What about the GI50 [23] of the same molecule?
Answer: > 100000 nM (inactive)

Question: What about the GI50 [24] of the same molecule?
Answer: > 100000 nM (inactive)

Question: What about the GI50 [25] of the same molecule?
Answer: > 100000 nM (inactive)

Question: What about the GI50 [26] of the same molecule?
Answer: > 100000 nM (inactive)

Question: And the GI50 [27]?
Answer: > 100000 nM (inactive)

Question: What about the GI50 [28] of the same molecule?
Answer: > 100000 nM (inactive)

Question: What about the GI50 [66] of the same molecule?
Answer: > 100000 nM (inactive)

Question: And the GI50 [30]?
Answer: > 100000 nM (inactive)

Question: What about the GI50 [33] of the same molecule?
Answer: > 100000 nM (inactive)

Question: What about the GI50 [34] of the same molecule?
Answer: > 100000 nM (inactive)

Question: What about the GI50 [35] of the same molecule?
Answer: > 100000 nM (inactive)

Question: What about the GI50 [36] of the same molecule?
Answer: > 100000 nM (inactive)

Question: What about the GI50 [67] of the same molecule?
Answer: > 100000 nM (inactive)

Question: And the GI50 [37]?
Answer: 90400 nM (inactive)

Question: And the GI50 [38]?
Answer: > 100000 nM (inactive)

Question: And the GI50 [40]?
Answer: > 100000 nM (inactive)

Question: What about the GI50 [41] of the same molecule?
Answer: > 100000 nM (inactive)

Question: What about the GI50 [43] of the same molecule?
Answer: > 100000 nM (inactive)

Question: What about the GI50 [44] of the same molecule?
Answer: > 100000 nM (inactive)

Question: And the GI50 [45]?
Answer: > 100000 nM (inactive)

Question: And the GI50 [47]?
Answer: > 100000 nM (inactive)

Question: What about the GI50 [68] of the same molecule?
Answer: > 100000 nM (inactive)

Question: What about the GI50 [48] of the same molecule?
Answer: > 100000 nM (inactive)

Question: What about the GI50 [49] of the same molecule?
Answer: > 100000 nM (inactive)

Question: What about the GI50 [50] of the same molecule?
Answer: > 100000 nM (inactive)

Question: And the GI50 [52]?
Answer: > 100000 nM (inactive)

Question: What about the GI50 [54] of the same molecule?
Answer: 74100 nM (inactive)

Question: And the GI50 [55]?
Answer: > 100000 nM (inactive)

Question: What about the GI50 [56] of the same molecule?
Answer: > 100000 nM (inactive)

Question: What about the GI50 [58] of the same molecule?
Answer: > 100000 nM (inactive)

Question: And the GI50 [59]?
Answer: > 100000 nM (inactive)

Question: What about the GI50 [61] of the same molecule?
Answer: > 100000 nM (inactive)

Question: And the GI50 [62]?
Answer: > 100000 nM (inactive)

Question: And the GI50 [63]?
Answer: > 100000 nM (inactive)

Question: What about the GI50 [64] of the same molecule?
Answer: > 100000 nM (inactive)

Question: What about the GI50 [65] of the same molecule?
Answer: > 100000 nM (inactive)
